Measurements taken from paper PMC7265341, “Quantifying CDK inhibitor selectivity in live cells” (Nature Communications, 2020).
Like-named read-outs stand apart in the source and are kept apart here.

Assays:
CDK4/Cyclin D1 = CDK4/Cyclin D1 (Homo sapiens, UniProt P11802); test: NanoBRET live-cell target engagement, NanoLuc-CDK4/Cyclin D1 in HEK-293; format: binding; settings: CDK4/D1, read-out: Inhibition at 10µM (%)
CDK5/CDK5R1 = CDK5/CDK5R1 (Homo sapiens, UniProt Q00535); test: NanoBRET live-cell target engagement, CDK5-NanoLuc/CDK5R1 in HEK-293; format: binding; settings: CDK5/CDK5R1, read-out: Inhibition at 10µM (%)
Sequence of CDK5/CDK5R1 (Q00535 whole entry): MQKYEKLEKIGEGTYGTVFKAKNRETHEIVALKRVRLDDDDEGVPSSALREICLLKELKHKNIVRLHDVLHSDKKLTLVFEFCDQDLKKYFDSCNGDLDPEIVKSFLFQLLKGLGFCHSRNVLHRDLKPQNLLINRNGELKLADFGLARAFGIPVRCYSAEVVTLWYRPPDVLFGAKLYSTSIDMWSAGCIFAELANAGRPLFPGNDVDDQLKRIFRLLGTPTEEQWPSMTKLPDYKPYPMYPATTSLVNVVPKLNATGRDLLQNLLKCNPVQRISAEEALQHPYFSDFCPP
Sequence of CDK5/CDK5R1 (Q15078 whole entry partner): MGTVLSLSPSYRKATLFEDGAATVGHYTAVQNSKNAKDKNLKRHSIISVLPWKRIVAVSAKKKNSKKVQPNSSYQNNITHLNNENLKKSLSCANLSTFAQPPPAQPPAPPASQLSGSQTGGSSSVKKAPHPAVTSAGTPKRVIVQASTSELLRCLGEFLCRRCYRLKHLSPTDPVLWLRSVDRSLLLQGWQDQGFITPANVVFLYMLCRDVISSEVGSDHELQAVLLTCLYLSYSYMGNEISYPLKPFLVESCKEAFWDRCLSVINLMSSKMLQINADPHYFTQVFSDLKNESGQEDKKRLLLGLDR

CDK8/Cyclin C = CDK8/Cyclin C (Homo sapiens, UniProt P49336); test: NanoBRET live-cell target engagement, NanoLuc-CDK8/Cyclin C in HEK-293; format: binding; settings: CDK8/C, read-out: Inhibition at 10µM (%)
Sequence of CDK8/Cyclin C (P49336 whole entry): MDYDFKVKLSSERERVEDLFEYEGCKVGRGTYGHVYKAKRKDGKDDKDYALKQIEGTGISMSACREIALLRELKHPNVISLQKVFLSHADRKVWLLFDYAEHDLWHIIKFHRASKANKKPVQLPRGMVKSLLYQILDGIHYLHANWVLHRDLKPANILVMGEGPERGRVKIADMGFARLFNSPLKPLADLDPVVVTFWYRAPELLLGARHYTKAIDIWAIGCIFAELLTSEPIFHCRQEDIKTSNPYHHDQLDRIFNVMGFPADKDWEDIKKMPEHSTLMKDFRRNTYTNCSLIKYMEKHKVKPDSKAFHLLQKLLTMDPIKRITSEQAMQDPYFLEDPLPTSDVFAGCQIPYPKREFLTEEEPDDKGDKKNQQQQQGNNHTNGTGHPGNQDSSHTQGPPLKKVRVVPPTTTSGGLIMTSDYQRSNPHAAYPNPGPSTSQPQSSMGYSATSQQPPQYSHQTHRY
Sequence of CDK8/Cyclin C (P24863 whole entry partner): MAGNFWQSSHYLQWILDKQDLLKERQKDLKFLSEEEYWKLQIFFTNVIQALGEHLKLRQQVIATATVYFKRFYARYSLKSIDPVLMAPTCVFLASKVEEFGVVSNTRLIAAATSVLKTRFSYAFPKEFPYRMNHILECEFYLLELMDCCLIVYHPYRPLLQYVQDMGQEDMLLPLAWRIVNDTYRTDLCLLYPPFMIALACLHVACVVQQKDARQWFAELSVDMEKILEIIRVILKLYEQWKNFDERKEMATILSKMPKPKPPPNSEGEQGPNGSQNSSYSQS

CDK11A/Cyclin L2 = target: T1, CDK11A/Cyclin L2 (Homo sapiens, UniProt Q9UQ88); test: NanoBRET live-cell target engagement, CDK11A-NanoLuc/Cyclin L2 in HEK-293; format: binding; settings: CDK11a/L2, read-out: Inhibition at 10µM (%)
T1 sequence (Q9UQ88 1-783): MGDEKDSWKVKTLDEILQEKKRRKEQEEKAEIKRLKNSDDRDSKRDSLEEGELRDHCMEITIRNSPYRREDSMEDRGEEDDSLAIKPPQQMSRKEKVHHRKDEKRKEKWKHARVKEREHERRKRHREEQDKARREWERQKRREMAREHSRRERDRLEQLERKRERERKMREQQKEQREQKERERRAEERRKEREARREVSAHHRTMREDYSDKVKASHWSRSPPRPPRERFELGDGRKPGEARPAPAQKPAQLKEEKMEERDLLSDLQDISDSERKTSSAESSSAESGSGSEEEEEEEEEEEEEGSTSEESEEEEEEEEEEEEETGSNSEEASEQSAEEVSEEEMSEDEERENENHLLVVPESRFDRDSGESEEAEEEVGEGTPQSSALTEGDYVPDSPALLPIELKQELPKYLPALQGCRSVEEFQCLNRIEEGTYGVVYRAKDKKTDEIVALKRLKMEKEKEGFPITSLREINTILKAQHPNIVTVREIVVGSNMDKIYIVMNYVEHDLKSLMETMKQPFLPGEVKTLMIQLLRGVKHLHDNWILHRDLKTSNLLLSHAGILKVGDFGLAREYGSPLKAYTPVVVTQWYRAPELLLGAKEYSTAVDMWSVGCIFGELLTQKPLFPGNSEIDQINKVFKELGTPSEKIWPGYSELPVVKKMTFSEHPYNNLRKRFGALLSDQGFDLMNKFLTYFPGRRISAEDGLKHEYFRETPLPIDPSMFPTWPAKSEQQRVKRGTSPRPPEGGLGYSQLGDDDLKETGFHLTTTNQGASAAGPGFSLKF

CDK11B/Cyclin L2 = CDK11B/Cyclin L2 (Homo sapiens, UniProt P21127); test: NanoBRET live-cell target engagement, CDK11B-NanoLuc/Cyclin L2 in HEK-293; format: binding; settings: CDK11b/L2, read-out: Inhibition at 10µM (%)
Sequence of CDK11B/Cyclin L2 (P21127 1-782 isoform P21127-2): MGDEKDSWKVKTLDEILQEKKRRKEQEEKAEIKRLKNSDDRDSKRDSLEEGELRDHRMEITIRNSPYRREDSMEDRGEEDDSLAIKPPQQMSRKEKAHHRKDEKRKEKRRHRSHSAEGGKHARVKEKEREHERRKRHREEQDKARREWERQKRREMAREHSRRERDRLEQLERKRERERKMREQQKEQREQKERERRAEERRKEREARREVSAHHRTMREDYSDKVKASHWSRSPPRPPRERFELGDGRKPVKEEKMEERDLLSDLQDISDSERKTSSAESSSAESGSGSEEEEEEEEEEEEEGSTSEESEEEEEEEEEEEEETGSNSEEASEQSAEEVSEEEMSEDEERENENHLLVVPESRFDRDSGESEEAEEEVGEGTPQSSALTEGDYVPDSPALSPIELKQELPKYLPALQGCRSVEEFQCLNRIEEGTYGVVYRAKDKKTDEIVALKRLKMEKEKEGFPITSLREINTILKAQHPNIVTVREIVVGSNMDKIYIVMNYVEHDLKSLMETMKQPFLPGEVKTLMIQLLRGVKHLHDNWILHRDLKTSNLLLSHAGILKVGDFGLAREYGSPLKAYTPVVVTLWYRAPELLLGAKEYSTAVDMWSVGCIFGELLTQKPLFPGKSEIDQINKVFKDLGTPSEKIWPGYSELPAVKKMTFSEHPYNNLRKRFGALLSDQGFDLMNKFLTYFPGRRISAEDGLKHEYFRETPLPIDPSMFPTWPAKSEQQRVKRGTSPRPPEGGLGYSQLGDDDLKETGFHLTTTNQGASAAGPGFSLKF

CDK12/Cyclin K = CDK12/Cyclin K (Homo sapiens, UniProt Q9NYV4); test: NanoBRET live-cell target engagement, CDK12-NanoLuc/Cyclin K in HEK-293; format: binding; settings: CDK12/K, read-out: Inhibition at 10µM (%)
CDK13/Cyclin K = CDK13/Cyclin K (Homo sapiens, UniProt Q14004); test: NanoBRET live-cell target engagement, CDK13-NanoLuc/Cyclin K in HEK-293; format: binding; settings: CDK13/K, read-out: Inhibition at 10µM (%)
CDK14/Cyclin Y = CDK14/Cyclin Y (Homo sapiens, UniProt O94921); test: NanoBRET live-cell target engagement, CDK14-NanoLuc/Cyclin Y in HEK-293; format: binding; settings: CDK14/Y, read-out: Inhibition at 10µM (%)
CDK15/Cyclin Y = CDK15/Cyclin Y (Homo sapiens, UniProt Q96Q40); test: NanoBRET live-cell target engagement, NanoLuc-CDK15/Cyclin Y in HEK-293; format: binding; settings: CDK15/Y, read-out: Inhibition at 10µM (%)
Sequence of CDK15/Cyclin Y (Q96Q40 whole entry): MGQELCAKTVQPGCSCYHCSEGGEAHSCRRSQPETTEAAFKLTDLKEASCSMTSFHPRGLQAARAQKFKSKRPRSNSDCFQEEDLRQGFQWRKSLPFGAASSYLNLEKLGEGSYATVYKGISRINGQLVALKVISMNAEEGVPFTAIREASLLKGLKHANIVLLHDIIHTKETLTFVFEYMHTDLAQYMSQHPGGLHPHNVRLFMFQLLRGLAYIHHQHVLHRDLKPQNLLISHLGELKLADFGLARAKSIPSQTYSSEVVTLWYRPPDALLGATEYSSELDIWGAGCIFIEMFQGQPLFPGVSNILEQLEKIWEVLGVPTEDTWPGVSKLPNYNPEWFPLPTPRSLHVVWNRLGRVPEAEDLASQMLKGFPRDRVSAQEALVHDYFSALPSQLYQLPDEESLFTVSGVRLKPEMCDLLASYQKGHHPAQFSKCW
Sequence of CDK15/Cyclin Y (Q8ND76 whole entry partner): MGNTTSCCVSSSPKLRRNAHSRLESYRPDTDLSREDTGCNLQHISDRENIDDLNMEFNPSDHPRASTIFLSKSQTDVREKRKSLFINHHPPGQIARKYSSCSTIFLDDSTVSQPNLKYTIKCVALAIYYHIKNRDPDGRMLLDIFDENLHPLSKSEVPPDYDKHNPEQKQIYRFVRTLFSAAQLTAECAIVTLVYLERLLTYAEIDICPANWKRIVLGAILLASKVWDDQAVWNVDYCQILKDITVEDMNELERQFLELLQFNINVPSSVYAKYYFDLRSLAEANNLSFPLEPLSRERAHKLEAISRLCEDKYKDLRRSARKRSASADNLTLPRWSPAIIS

CDK16/Cyclin Y = CDK16/Cyclin Y (Homo sapiens, UniProt Q00536); test: NanoBRET live-cell target engagement, CDK16-NanoLuc/Cyclin Y in HEK-293; format: binding; settings: CDK16/Y, read-out: Inhibition at 10µM (%)
CDK17/Cyclin Y = CDK17/Cyclin Y (Homo sapiens, UniProt Q00537); test: NanoBRET live-cell target engagement, CDK17-NanoLuc/Cyclin Y in HEK-293; format: binding
CDK18/Cyclin Y = CDK18/Cyclin Y (Homo sapiens, UniProt Q07002); test: NanoBRET live-cell target engagement, CDK18-NanoLuc/Cyclin Y in HEK-293; format: binding; settings: CDK18/Y, read-out: Inhibition at 10µM (%)
Sequence of CDK18/Cyclin Y (Q07002 whole entry): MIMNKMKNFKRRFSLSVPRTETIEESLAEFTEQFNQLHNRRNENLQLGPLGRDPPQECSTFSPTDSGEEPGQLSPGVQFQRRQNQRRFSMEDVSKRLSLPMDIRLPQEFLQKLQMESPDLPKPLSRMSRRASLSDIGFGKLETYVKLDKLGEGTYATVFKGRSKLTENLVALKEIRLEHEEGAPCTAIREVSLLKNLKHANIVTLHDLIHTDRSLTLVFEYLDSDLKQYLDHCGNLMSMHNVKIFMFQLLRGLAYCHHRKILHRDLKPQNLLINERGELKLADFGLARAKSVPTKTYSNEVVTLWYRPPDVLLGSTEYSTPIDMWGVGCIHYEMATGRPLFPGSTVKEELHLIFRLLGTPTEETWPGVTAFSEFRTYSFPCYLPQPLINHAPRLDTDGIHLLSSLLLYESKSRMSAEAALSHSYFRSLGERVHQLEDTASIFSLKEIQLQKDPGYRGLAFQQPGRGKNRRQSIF
Sequence of CDK18/Cyclin Y (Q8ND76 whole entry partner): as the sequence (Q8ND76 whole entry partner) above

CDK20/Cyclin H = CDK20/Cyclin H (Homo sapiens, UniProt Q8IZL9); test: NanoBRET live-cell target engagement, NanoLuc-CDK20/Cyclin H in HEK-293; format: binding; settings: CDK20/H, read-out: Inhibition at 10µM (%)
all 21 human CDKs = test: Live-cell selectivity profile across all 21 CDK/cyclin complexes in HEK-293; format: binding; settings: live cells
CDK19/Cyclin C = CDK19/Cyclin C (Homo sapiens, UniProt Q9BWU1); test: NanoBRET live-cell target engagement, NanoLuc-CDK19/Cyclin C in HEK-293; settings: read-out: Inhibition at 10µM (%), CDK19/C
Sequence of CDK19/Cyclin C (Q9BWU1 whole entry): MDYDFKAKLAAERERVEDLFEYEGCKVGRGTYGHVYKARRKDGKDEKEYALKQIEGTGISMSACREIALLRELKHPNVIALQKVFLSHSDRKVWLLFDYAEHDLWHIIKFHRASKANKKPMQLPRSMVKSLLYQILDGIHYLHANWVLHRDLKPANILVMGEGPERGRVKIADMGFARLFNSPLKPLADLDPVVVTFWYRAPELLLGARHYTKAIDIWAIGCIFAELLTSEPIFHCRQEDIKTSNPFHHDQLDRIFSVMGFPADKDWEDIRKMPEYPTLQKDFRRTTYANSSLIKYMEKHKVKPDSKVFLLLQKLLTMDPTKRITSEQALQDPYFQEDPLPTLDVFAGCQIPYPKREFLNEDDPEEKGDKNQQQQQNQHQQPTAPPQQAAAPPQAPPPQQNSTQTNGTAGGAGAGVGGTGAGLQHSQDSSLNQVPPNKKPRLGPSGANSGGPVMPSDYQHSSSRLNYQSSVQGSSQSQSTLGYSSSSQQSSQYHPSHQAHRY
Sequence of CDK19/Cyclin C (P24863 whole entry partner): as the sequence (P24863 whole entry partner) above

CDK10/Cyclin L2 = CDK10/Cyclin L2 (Homo sapiens, UniProt Q15131); test: NanoBRET live-cell target engagement, CDK10-NanoLuc/Cyclin L2 in HEK-293; settings: read-out: Inhibition at 10µM (%), CDK10/L2
Sequence of CDK10/Cyclin L2 (Q15131 whole entry): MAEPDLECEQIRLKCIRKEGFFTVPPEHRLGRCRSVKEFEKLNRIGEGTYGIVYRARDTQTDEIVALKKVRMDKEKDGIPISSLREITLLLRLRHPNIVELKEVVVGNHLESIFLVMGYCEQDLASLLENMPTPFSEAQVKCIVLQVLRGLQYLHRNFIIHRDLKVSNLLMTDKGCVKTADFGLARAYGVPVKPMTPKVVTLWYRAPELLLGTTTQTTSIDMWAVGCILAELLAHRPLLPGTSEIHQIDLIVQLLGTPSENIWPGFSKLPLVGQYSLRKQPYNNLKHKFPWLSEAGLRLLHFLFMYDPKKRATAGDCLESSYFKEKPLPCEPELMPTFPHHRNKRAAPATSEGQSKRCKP

Sequence of CDK4/Cyclin D1 (P11802 whole entry): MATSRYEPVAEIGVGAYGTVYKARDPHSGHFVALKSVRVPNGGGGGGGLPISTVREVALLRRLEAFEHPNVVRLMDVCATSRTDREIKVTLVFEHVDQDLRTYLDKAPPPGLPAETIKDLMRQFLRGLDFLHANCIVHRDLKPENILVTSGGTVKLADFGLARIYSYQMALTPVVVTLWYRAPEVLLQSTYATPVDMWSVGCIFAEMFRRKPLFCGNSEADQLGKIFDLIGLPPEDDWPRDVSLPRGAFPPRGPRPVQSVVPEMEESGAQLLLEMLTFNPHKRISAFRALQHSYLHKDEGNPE
Sequence of CDK4/Cyclin D1 (P24385 whole entry partner): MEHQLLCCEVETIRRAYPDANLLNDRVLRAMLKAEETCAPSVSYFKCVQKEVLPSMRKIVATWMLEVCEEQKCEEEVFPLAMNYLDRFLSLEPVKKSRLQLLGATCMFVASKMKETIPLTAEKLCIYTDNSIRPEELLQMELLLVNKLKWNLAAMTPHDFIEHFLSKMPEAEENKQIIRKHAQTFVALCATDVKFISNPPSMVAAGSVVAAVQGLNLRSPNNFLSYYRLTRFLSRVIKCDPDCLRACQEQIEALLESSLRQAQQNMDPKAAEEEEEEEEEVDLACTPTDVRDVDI

Question: What does the source list for `CC(C)(C)c1nc(-c2cccc(NS(=O)(=O)c3c(F)cccc3F)c2F)c(-c2ccnc(N)n2)s1` [Dabrafenib]?
Answer: inhibition at 10 µM (CDK4/Cyclin D1; average): 21.4%; inhibition at 10 µM (CDK4/Cyclin D1; experiment 1): 5.4%; inhibition at 10 µM (CDK4/Cyclin D1; experiment 2): 37.4%; inhibition at 10 µM (CDK5/CDK5R1; average): -2.2%; inhibition at 10 µM (CDK5/CDK5R1; experiment 1): -4.1%; inhibition at 10 µM (CDK5/CDK5R1; experiment 2): -0.278%; inhibition at 10 µM (CDK8/Cyclin C; average): -1.9%; inhibition at 10 µM (CDK8/Cyclin C; experiment 1): -1.4%; inhibition at 10 µM (CDK8/Cyclin C; experiment 2): -2.4%; inhibition at 10 µM (CDK11A/Cyclin L2; average): 9.5%; inhibition at 10 µM (CDK11A/Cyclin L2; experiment 1): 2.1%; inhibition at 10 µM (CDK11A/Cyclin L2; experiment 2): 16.8%; inhibition at 10 µM (CDK11B/Cyclin L2; average): 4.4%; inhibition at 10 µM (CDK11B/Cyclin L2; experiment 1): 2.7%; inhibition at 10 µM (CDK11B/Cyclin L2; experiment 2): 6%; inhibition at 10 µM (CDK12/Cyclin K; average): 20.2%; inhibition at 10 µM (CDK12/Cyclin K; experiment 1): 5.9%; inhibition at 10 µM (CDK12/Cyclin K; experiment 2): 34.6%; inhibition at 10 µM (CDK13/Cyclin K; average): 10.9%; inhibition at 10 µM (CDK13/Cyclin K; experiment 1): 7.1%; inhibition at 10 µM (CDK13/Cyclin K; experiment 2): 14.7%; inhibition at 10 µM (CDK14/Cyclin Y; average): 0.0911%; inhibition at 10 µM (CDK14/Cyclin Y; experiment 1): 0.459%; inhibition at 10 µM (CDK14/Cyclin Y; experiment 2): -0.277%; inhibition at 10 µM (CDK15/Cyclin Y; average): 14.6%; inhibition at 10 µM (CDK15/Cyclin Y; experiment 1): 4.4%; inhibition at 10 µM (CDK15/Cyclin Y; experiment 2): 24.7%; inhibition at 10 µM (CDK16/Cyclin Y; experiment 1): 1.4%; inhibition at 10 µM (CDK16/Cyclin Y; experiment 2): -3.4%; inhibition at 10 µM (CDK17/Cyclin Y; CDK17/Y, average, read-out: Inhibition at 10µM (%)): 10.2%; inhibition at 10 µM (CDK17/Cyclin Y; CDK17/Y, experiment 2, read-out: Inhibition at 10µM (%)): 4%; inhibition at 10 µM (CDK17/Cyclin Y; read-out: Inhibition at 10µM (%), CDK17/Y, experiment 1): 16.4%; inhibition at 10 µM (CDK18/Cyclin Y; average): 8.1%; inhibition at 10 µM (CDK18/Cyclin Y; experiment 1): 1.7%; inhibition at 10 µM (CDK18/Cyclin Y; experiment 2): 14.5%; inhibition at 10 µM (CDK20/Cyclin H; experiment 1): 13.5%; inhibition at 10 µM (CDK20/Cyclin H; experiment 2): 6.7%; engagement of CDKs at concentrations up to 10μM (all 21 human CDKs): only weakly engaged; inhibition at 10 µM (CDK19/Cyclin C; average): -6.6%; inhibition at 10 µM (CDK19/Cyclin C; experiment 1): 0.8%; inhibition at 10 µM (CDK19/Cyclin C; experiment 2): -14%; inhibition at 10 µM (CDK10/Cyclin L2; average): 12.7%; inhibition at 10 µM (CDK10/Cyclin L2; experiment 1): 3%; inhibition at 10 µM (CDK10/Cyclin L2; experiment 2): 22.4%
